From patent US11945822B2, “Pyrazolo-triazine and/or pyrazolo-pxrimidine derivatives as selective inhibitor of cyclin dependent kinase” (QURIENT CO., LTD., priority 2018, dated 2024)

Test system: MV4-11
Experiment: Cellular MV4-11 viability assay (CellTiter-Glo, 72 hours)
Assay type: cell-based
Details: Homo sapiens
Procedure: (§1) All cell lines were routinely tested for mycoplasma.
(§2) The effect of the CDK7 inhibitor to inhibit the growth of target cancer cells was evaluated through the 72 hours time period of viability assay. Briefly, the candidate cell line ware plated in 96 well plate at the following density of cells respectively. […] DMSO solvent without compound served as a control and final DMSO concentration less than 0.1%. After 72 hours of incubation at 37° C., 5% CO2 incubator, cells were analyzed for the viability using the CellTiter-Glo Luminescent Cell Viability Assay (Promega, Cat #G7570). All viability assays were performed in duplicate and Luminescence was read using an Envision (Perkin Elmer, USA). Data was analyzed using XLfit software.

IC50 [nM] | Compound
< 1000 | CC(C)c1cnn2c(NCc3ccccc3-c3ccc4ccccc4n3)nc(OCC3CCNCC3O)nc12 (centres unmarked) [Compound 218]
1000 to 10000 | CC(C)c1cnn2c(NCc3ccccc3-n3cccn3)nc(Nc3cccc(OC4CCNC4)c3)nc12 (racemic) [Compound 164]
1000 to 10000 | CC(C)c1cnn2c(NCc3ccccc3-c3ccc4ccccc4n3)cc(OCC3CCNCC3)nc12 [Compound 213]
< 1000 | CC(C)c1cnn2c(NCc3ccccc3-n3ccc(C(C)(C)O)n3)nc(NCC3CCNCC3O)nc12 (centres unmarked) [Compound 223]

Molecular target: T1, CDK1/Cyclin B (Homo sapiens, UniProt P06493)
T1 construct: purchased Invitrogen PR4768C
T1 sequence (P06493 whole entry): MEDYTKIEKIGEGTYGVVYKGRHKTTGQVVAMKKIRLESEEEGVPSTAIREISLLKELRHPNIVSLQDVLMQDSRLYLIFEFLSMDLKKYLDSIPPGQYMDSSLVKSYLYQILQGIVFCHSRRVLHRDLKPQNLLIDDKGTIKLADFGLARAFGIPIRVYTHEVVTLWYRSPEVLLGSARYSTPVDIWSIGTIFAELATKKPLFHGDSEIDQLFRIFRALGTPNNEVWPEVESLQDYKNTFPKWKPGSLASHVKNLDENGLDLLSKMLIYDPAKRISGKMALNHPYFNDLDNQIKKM
T1 sequence (P14635 whole entry partner): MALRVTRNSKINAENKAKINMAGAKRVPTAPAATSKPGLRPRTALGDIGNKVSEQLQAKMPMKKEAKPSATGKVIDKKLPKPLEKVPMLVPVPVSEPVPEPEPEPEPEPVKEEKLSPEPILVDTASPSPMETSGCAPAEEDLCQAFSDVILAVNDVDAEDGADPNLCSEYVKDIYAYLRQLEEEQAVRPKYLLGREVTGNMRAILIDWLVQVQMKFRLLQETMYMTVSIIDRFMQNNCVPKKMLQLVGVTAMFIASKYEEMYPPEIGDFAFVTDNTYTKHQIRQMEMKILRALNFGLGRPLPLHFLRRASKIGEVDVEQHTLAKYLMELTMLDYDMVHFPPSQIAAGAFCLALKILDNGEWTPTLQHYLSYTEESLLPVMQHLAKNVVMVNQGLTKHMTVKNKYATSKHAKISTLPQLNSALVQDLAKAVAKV
Experiment: Enzymatic assay for CDK1 (FRET based LANCE Ultra kinase assay)
Assay type: biochemical
Details: read-out: CDK1 enzymatic activity (IC50 range)
Procedure: (§3) Enzymatic Binding Assay Protocol for CDK1, CDK2, CDK5 and CDK7
(§4) Inhibition activity of the respective compound on CDK kinase under Km value of ATP was tested in FRET based The LANCE® Ultra kinase assay (Perkin Elmer), which uses a ULight™-labeled peptide substrate and an appropriate Europium-labeled anti-phospho-antibody. Test compounds were made with DMSO solutions, and then 4-fold serial dilutions for 8 doses were prepared using automated liquid handler (POD810, LABCYTE) and 80 nL/well of diluted compound solutions were added into the 384-well plates (Greiner, Cat #784075). And then 68 nM of ULight-MBP peptide (Perkin Elmer, Cat #TRF0109-M) and 5 ul/well of ATP (Sigma, Cat #A7699) were added to the plate. After 1 min centrifugation at 1000 rpm, Purified CDKs/Cyclin complex were added following concentrations respectively. 24 uM for CDK1/Cyclin B (Invitrogen, Cat #PR4768C), 22 uM for CDK2/Cyclin A (Invitrogen, Cat #PV6290), 10 uM for CDK5/p25 (Invitrogen, Cat #PR8543B) and […] for CDK7/Cyclin H/MNAT1 (Invitrogen, Cat #PR6749B) were added to the each corresponding plate for CDK1, CDK2, CDK5 and CDK7. Incubate at 23° C. for 60 min and then Eu-labeled anti-phospho-Myelin Basic Protein (PE, Cat #TRF0201-M) and EDTA (Invitrogen, Cat #15575038) mixture in Lance Detection Buffer (Perkin Elmer, Cat #CR97100) was added in each well. After additional incubation at 23° C. for 60 min, test articles were measured the fluorescence using Envision leader (Perkin Elmer, USA) [Laser as excitation light; […] as the first and the second emission filter]. Data was analyzed using XL Fit software.

IC50 [nM] | Compound
> 1000 | CC(C)c1cnn2c(NCc3ccccc3-c3ccc4ccccc4n3)nc(OCC3CCNCC3O)nc12 (centres unmarked) [Compound 218]
> 1000 | CC(C)c1cnn2c(NCc3ccccc3-n3cccn3)nc(Nc3cccc(OC4CCNC4)c3)nc12 (racemic) [Compound 164]
> 1000 | CC(C)c1cnn2c(NCc3ccccc3-c3ccc4ccccc4n3)cc(OCC3CCNCC3)nc12 [Compound 213]
> 1000 | CC(C)c1cnn2c(NCc3ccccc3-n3ccc(C(C)(C)O)n3)nc(NCC3CCNCC3O)nc12 (centres unmarked) [Compound 223]

Test system: HCT116
Experiment: Cellular HCT116 viability assay (CellTiter-Glo, 72 hours)
Assay type: cell-based
Details: Homo sapiens, HCT-116
Procedure: as §1, §2

IC50 [nM] | Compound
< 1000 | CC(C)c1cnn2c(NCc3ccccc3-c3ccc4ccccc4n3)nc(OCC3CCNCC3O)nc12 (centres unmarked) [Compound 218]
1000 to 10000 | CC(C)c1cnn2c(NCc3ccccc3-c3ccc4ccccc4n3)cc(OCC3CCNCC3)nc12 [Compound 213]
< 1000 | CC(C)c1cnn2c(NCc3ccccc3-n3ccc(C(C)(C)O)n3)nc(NCC3CCNCC3O)nc12 (centres unmarked) [Compound 223]

Test system: H460
Experiment: Cellular H460 viability assay (CellTiter-Glo, 72 hours)
Assay type: cell-based
Details: Homo sapiens, NCI-H460
Procedure: as §1, §2

IC50 [nM] | Compound
< 1000 | CC(C)c1cnn2c(NCc3ccccc3-c3ccc4ccccc4n3)nc(OCC3CCNCC3O)nc12 (centres unmarked) [Compound 218]
1000 to 10000 | CC(C)c1cnn2c(NCc3ccccc3-c3ccc4ccccc4n3)cc(OCC3CCNCC3)nc12 [Compound 213]
< 1000 | CC(C)c1cnn2c(NCc3ccccc3-n3ccc(C(C)(C)O)n3)nc(NCC3CCNCC3O)nc12 (centres unmarked) [Compound 223]

Molecular target: T2, CDK7/Cyclin H/MNAT1 (Homo sapiens, UniProt P50613)
T2 construct: purchased Invitrogen PR6749B
T2 sequence (P50613 whole entry): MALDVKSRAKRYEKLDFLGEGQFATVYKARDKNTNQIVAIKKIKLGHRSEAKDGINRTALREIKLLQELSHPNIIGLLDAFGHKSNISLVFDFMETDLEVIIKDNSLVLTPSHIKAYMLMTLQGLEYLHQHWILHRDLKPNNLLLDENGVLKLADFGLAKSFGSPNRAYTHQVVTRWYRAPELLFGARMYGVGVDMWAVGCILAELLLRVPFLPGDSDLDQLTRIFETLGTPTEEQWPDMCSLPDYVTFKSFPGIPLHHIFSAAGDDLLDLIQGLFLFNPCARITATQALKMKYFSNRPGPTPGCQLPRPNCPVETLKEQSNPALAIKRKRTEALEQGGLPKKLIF
T2 sequence (P51946 whole entry partner): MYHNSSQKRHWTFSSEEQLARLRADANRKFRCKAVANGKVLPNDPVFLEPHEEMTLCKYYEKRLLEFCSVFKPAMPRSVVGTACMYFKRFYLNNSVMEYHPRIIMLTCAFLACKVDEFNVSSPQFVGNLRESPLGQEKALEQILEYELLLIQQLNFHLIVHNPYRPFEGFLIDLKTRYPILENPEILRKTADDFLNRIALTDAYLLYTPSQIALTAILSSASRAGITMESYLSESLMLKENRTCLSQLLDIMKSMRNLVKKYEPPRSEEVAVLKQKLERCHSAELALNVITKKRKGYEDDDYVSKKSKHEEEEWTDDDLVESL
T2 sequence (P51948 whole entry partner): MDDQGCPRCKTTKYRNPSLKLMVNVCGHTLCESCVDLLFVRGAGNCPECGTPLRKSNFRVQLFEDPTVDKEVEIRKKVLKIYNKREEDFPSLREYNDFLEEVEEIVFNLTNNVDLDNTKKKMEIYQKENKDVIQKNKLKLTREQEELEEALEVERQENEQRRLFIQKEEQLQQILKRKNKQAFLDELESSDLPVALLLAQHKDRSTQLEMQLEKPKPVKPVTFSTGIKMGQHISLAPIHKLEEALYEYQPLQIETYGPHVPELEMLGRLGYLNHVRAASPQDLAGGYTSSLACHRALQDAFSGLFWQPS
Experiment: Enzymatic assay for CDK7 (FRET based LANCE Ultra kinase assay)
Assay type: biochemical
Details: CDK7 over CDK1
Procedure: as §3
Inhibition activity of the respective compound on CDK kinase under Km value of ATP was tested in FRET based The LANCE® Ultra kinase assay (Perkin Elmer), which uses a ULight™-labeled peptide substrate and an appropriate Europium-labeled anti-phospho-antibody. […] After 1 min centrifugation at 1000 rpm, Purified CDKs/Cyclin complex were added following concentrations respectively. […] Data was analyzed using XL Fit software.

CDK1/CDK7: Selectivity of CDK7 inhibition over CDK1 inhibition | Compound
A (A=greater than 200 fold) | CC(C)c1cnn2c(NCc3ccccc3-c3ccc4ccccc4n3)nc(OCC3CCNCC3O)nc12 (centres unmarked) [Compound 218]
A (A=greater than 200 fold) | CC(C)c1cnn2c(NCc3ccccc3-c3ccc4ccccc4n3)cc(OCC3CCNCC3)nc12 [Compound 213]
A (A=greater than 200 fold) | CC(C)c1cnn2c(NCc3ccccc3-n3ccc(C(C)(C)O)n3)nc(NCC3CCNCC3O)nc12 (centres unmarked) [Compound 223]

Compound | CDK1/CDK7: Selectivity of CDK7 inhibition over CDK1 inhibition
CC(C)c1cnn2c(NCc3ccccc3-n3cccn3)nc(Nc3cccc(OC4CCNC4)c3)nc12 (racemic) [Compound 164] | B (B=less than 200 fold, but greater than 20 fold)

Same assay, conditions: CDK7 over CDK2

Compound | CDK2/CDK7: Selectivity of CDK7 inhibition over CDK2 inhibition
CC(C)c1cnn2c(NCc3ccccc3-c3ccc4ccccc4n3)nc(OCC3CCNCC3O)nc12 (centres unmarked) [Compound 218] | A (A=greater than 200 fold)
CC(C)c1cnn2c(NCc3ccccc3-n3cccn3)nc(Nc3cccc(OC4CCNC4)c3)nc12 (racemic) [Compound 164] | B (B=less than 200 fold, but greater than 20 fold)
CC(C)c1cnn2c(NCc3ccccc3-c3ccc4ccccc4n3)cc(OCC3CCNCC3)nc12 [Compound 213] | A (A=greater than 200 fold)
CC(C)c1cnn2c(NCc3ccccc3-n3ccc(C(C)(C)O)n3)nc(NCC3CCNCC3O)nc12 (centres unmarked) [Compound 223] | B (B=less than 200 fold, but greater than 20 fold)

Same assay, conditions: CDK7 over CDK5

Compound | CDK5/CDK7: Selectivity of CDK7 inhibition over CDK5 inhibition
CC(C)c1cnn2c(NCc3ccccc3-c3ccc4ccccc4n3)nc(OCC3CCNCC3O)nc12 (centres unmarked) [Compound 218] | A (A=greater than 200 fold)
CC(C)c1cnn2c(NCc3ccccc3-n3cccn3)nc(Nc3cccc(OC4CCNC4)c3)nc12 (racemic) [Compound 164] | B (B=less than 200 fold, but greater than 20 fold)
CC(C)c1cnn2c(NCc3ccccc3-c3ccc4ccccc4n3)cc(OCC3CCNCC3)nc12 [Compound 213] | A (A=greater than 200 fold)
CC(C)c1cnn2c(NCc3ccccc3-n3ccc(C(C)(C)O)n3)nc(NCC3CCNCC3O)nc12 (centres unmarked) [Compound 223] | B (B=less than 200 fold, but greater than 20 fold)

Same assay, conditions: read-out: CDK7 enzymatic activity (IC50 range)

IC50 [nM] | Compound
< 100 | CC(C)c1cnn2c(NCc3ccccc3-c3ccc4ccccc4n3)nc(OCC3CCNCC3O)nc12 (centres unmarked) [Compound 218]
< 100 | CC(C)c1cnn2c(NCc3ccccc3-n3cccn3)nc(Nc3cccc(OC4CCNC4)c3)nc12 (racemic) [Compound 164]
< 100 | CC(C)c1cnn2c(NCc3ccccc3-c3ccc4ccccc4n3)cc(OCC3CCNCC3)nc12 [Compound 213]
< 100 | CC(C)c1cnn2c(NCc3ccccc3-n3ccc(C(C)(C)O)n3)nc(NCC3CCNCC3O)nc12 (centres unmarked) [Compound 223]

Molecular target: T3, CDK2/Cyclin A (Homo sapiens, UniProt P24941)
T3 construct: purchased Invitrogen PV6290
Experiment: Enzymatic assay for CDK2 (FRET based LANCE Ultra kinase assay)
Assay type: biochemical
Details: read-out: CDK2 enzymatic activity (IC50 range)
Procedure: as §3, §4

IC50 [nM] | Compound
> 1000 | CC(C)c1cnn2c(NCc3ccccc3-c3ccc4ccccc4n3)nc(OCC3CCNCC3O)nc12 (centres unmarked) [Compound 218]
> 1000 | CC(C)c1cnn2c(NCc3ccccc3-n3cccn3)nc(Nc3cccc(OC4CCNC4)c3)nc12 (racemic) [Compound 164]
> 1000 | CC(C)c1cnn2c(NCc3ccccc3-c3ccc4ccccc4n3)cc(OCC3CCNCC3)nc12 [Compound 213]
> 1000 | CC(C)c1cnn2c(NCc3ccccc3-n3ccc(C(C)(C)O)n3)nc(NCC3CCNCC3O)nc12 (centres unmarked) [Compound 223]

Molecular target: T4, CDK5/p25 (Homo sapiens, UniProt Q00535)
T4 construct: purchased Invitrogen PR8543B
T4 sequence (Q00535 whole entry): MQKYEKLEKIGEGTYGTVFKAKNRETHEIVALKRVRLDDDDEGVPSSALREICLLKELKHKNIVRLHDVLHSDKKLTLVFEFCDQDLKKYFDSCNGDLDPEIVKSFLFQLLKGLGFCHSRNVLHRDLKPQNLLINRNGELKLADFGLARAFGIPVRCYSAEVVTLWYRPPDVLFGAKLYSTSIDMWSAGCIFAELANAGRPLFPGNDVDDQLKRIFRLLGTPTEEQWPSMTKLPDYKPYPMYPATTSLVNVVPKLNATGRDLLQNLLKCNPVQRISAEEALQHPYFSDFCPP
T4 sequence (Q15078 99-307 partner limits assumed): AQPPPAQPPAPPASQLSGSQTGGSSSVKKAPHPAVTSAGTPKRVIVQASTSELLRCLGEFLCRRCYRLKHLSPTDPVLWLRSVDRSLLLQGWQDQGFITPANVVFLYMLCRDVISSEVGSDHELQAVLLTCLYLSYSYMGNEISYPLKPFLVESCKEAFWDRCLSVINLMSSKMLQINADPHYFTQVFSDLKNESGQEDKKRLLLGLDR
Experiment: Enzymatic assay for CDK5 (FRET based LANCE Ultra kinase assay)
Assay type: biochemical
Details: read-out: CDK5 enzymatic activity (IC50 range)
Procedure: as §3, §4

IC50 [nM] | Compound
> 1000 | CC(C)c1cnn2c(NCc3ccccc3-c3ccc4ccccc4n3)nc(OCC3CCNCC3O)nc12 (centres unmarked) [Compound 218]
> 1000 | CC(C)c1cnn2c(NCc3ccccc3-n3cccn3)nc(Nc3cccc(OC4CCNC4)c3)nc12 (racemic) [Compound 164]
> 1000 | CC(C)c1cnn2c(NCc3ccccc3-c3ccc4ccccc4n3)cc(OCC3CCNCC3)nc12 [Compound 213]
> 1000 | CC(C)c1cnn2c(NCc3ccccc3-n3ccc(C(C)(C)O)n3)nc(NCC3CCNCC3O)nc12 (centres unmarked) [Compound 223]
